Laboratory results taken from patent US7498343B2, “Mycobacterial inhibitors” (priority 2002, dated 2009).
In brackets after ≈: the same amount, converted by molar mass. Where two headings read alike, the source gives them in different places.

Legend:
M. Smegmatis ATCC607 = assay: In-vitro method for testing compounds for anti-bacterial activity against strain M. smegmatis ATCC607 (Alamar Blue growth inhibition); assay type: cell-based; conditions: pIC50 = -logIC50, IC50 in M, 50% inhibitory concentration for bacterial growth, 48 hours incubation; for IC50: Mycolicibacterium smegmatis, ATCC607, 48 h
Outline: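 About 250 CFU/well M. smegmatis ATCC607 in Mueller-Hinton broth exposed to five-fold serial compound dilutions, 48 h at 37 °C, humidified 5% CO2. Growth read by Alamar Blue fluorescence (ex 530/em 590 nm) after 2 h further incubation; % growth inhibition calculated.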

[1] = test system: Mycobacterium tuberculosis (strain H37RV); assay: In-vitro method for testing compounds against M. tuberculosis (resazurin growth inhibition, MIC); assay type: cell-based; conditions: MIC data representing IC90's, 7 days incubation, resazurin fluorescence
[2] = read-out: pIC50, M. smegmatis ATCC607 (converted)
[3] = Mycobacterium tuberculosis, H37RV, 168 h, read-out: MIC

## COc1nc2ccc(Br)cc2cc1C(c1ccccc1)C(O)(CCN1CCOCC1)c1ccc2cc(Br)ccc2c1 (single isomer, unassigned) [Compound 178]
M. Smegmatis ATCC607; M. smegmatis ATCC607
  pIC50: 4.5
[1]
  MIC: 67.65 microgram/ml

## COc1nc2ccc(C#N)cc2cc1C(c1ccccc1)C(O)(CCN(C)C)c1cccc(F)c1 (single isomer, unassigned) [Compound 179]
M. Smegmatis ATCC607; M. smegmatis ATCC607
  pIC50: 7.0
[1]
  MIC: 1.48 microgram/ml

## COc1nc2ccc(C#N)cc2cc1C(c1ccccc1)C(O)(CCN(C)C)c1cccc(F)c1 (single isomer, unassigned) [Compound 180]
M. Smegmatis ATCC607; M. smegmatis ATCC607
  pIC50: 6.6
[1]
  MIC: 3.73 microgram/ml

## COc1nc2ccc(Br)cc2cc1C(c1ccccc1)C(O)(CCN(C)C)c1ccc(F)cc1 (single isomer, unassigned) [Compound 181]
M. Smegmatis ATCC607; M. smegmatis ATCC607
  pIC50: 6.9
[1]
  MIC: 8.30 microgram/ml

## COc1nc2ccc(Br)cc2cc1C(c1ccccc1)C(O)(CCN(C)C)c1ccc(F)cc1 (single isomer, unassigned) [Compound 182]
M. Smegmatis ATCC607; M. smegmatis ATCC607
  pIC50: 6.3
[1]
  MIC: 8.30 microgram/ml

## COc1nc2ccc(Br)cc2cc1C(c1ccccc1)C(O)(CCN(C)C)c1cccc(C(F)(F)F)c1 (single isomer, unassigned) [Compound 183]
M. Smegmatis ATCC607; M. smegmatis ATCC607
  pIC50: 8.3
[1]
  MIC: 0.36 microgram/ml

## COc1nc2ccc(Br)cc2cc1C(c1ccccc1)C(O)(CCCN(C)C)c1cccc2ccccc12 (single isomer, unassigned) [Compound 186]
M. Smegmatis ATCC607; M. smegmatis ATCC607
  pIC50: 4.5
[1]
  MIC: 56.96 microgram/ml

## COc1nc2ccc(Br)cc2cc1C(c1ccccc1)C(O)(CCCCN(C)C)c1ccc2ccccc2c1 (single isomer, unassigned) [Compound 190]
M. Smegmatis ATCC607; M. smegmatis ATCC607
  pIC50: 6.5
[1]
  MIC: 1.85 microgram/ml

## COc1nc2ccc(Br)cc2cc1C(c1ccccc1)C(O)(CCCCN(C)C)c1ccc2ccccc2c1 (single isomer, unassigned) [Compound 191]
M. Smegmatis ATCC607; M. smegmatis ATCC607
  pIC50: 6.5
[1]
  MIC: 1.85 microgram/ml

## CCN(CC)CCCC(O)(c1ccc2ccccc2c1)C(c1ccccc1)c1cc2cc(Br)ccc2nc1OC (single isomer, unassigned) [Compound 192]
M. Smegmatis ATCC607; M. smegmatis ATCC607
  pIC50: 6.5
[1]
  MIC: 5.98 microgram/ml

## CCN(CC)CCCC(O)(c1ccc2ccccc2c1)C(c1ccccc1)c1cc2cc(Br)ccc2nc1OC (single isomer, unassigned) [Compound 193]
M. Smegmatis ATCC607; M. smegmatis ATCC607
  pIC50: 5.6
[1]
  MIC: 9.47 microgram/ml

## COc1nc2ccc(Br)cc2cc1C(c1ccccc1)C(O)(CCCN1CCCC1)c1cccc2ccccc12 (single isomer, unassigned) [Compound 194]
M. Smegmatis ATCC607; M. smegmatis ATCC607
  pIC50: 4.9
[1]
  MIC: 47.31 microgram/ml

## COc1nc2ccc(Br)cc2cc1C(c1ccccc1)C(O)(CCCCN(C)C)c1cccc2ccccc12 (single isomer, unassigned) [Compound 197]
M. Smegmatis ATCC607; M. smegmatis ATCC607
  pIC50: 6.6
[1]
  MIC: 9.25 microgram/ml

## COc1nc2ccc(Br)cc2cc1C(c1ccccc1)C(O)(CCCN1CCOCC1)c1ccc2ccccc2c1 (single isomer, unassigned) [Compound 198]
M. Smegmatis ATCC607; M. smegmatis ATCC607
  pIC50: 4.3
[1]
  MIC: 61.16 microgram/ml

## COc1nc2ccc(Br)cc2cc1C(c1ccccc1)C(O)(CCCN(C)C)c1cccc2ccccc12 (single isomer, unassigned) [Compound 199]
M. Smegmatis ATCC607; M. smegmatis ATCC607
  pIC50: 6.5
[1]
  MIC: 47.47 microgram/ml

## COc1nc2ccc(Br)cc2cc1C(c1ccccc1)C(O)(CCN1CCN(c2ncccn2)CC1)c1ccc2ccccc2c1 (single isomer, unassigned) [Compound 200]
M. Smegmatis ATCC607; M. smegmatis ATCC607
  pIC50: 4.9
[1]
  MIC: 67.47 microgram/ml

## COc1nc2ccc(Br)cc2cc1C(c1ccccc1)C(O)(CCN(C)C)C1CCN(C(=O)c2ccccc2)CC1 (single isomer, unassigned) [Compound 201]
M. Smegmatis ATCC607; M. smegmatis ATCC607
  pIC50: 5.7
[1]
  MIC: 9.77 microgram/ml

## COc1nc2ccc(Br)cc2cc1C(c1ccccc1)C(O)(CCN(C)C)C1CCN(C(=O)c2ccccc2)CC1 (single isomer, unassigned) [Compound 202]
M. Smegmatis ATCC607; M. smegmatis ATCC607
  pIC50: 4.8
[1]
  MIC: 48.98 microgram/ml

## COc1nc2ccc(-c3cc4ccccc4s3)cc2cc1C(c1ccccc1)C(O)(CCN(C)C)c1cccc(F)c1 (single isomer, unassigned) [Compound 203]
M. Smegmatis ATCC607; M. smegmatis ATCC607
  pIC50: 8.0
[1]
  MIC: 1.15 microgram/ml

## COc1nc2ccc(-c3cc4ccccc4s3)cc2cc1C(c1ccccc1)C(O)(CCN(C)C)c1cccc(F)c1 (single isomer, unassigned) [Compound 204]
M. Smegmatis ATCC607; M. smegmatis ATCC607
  pIC50: 5.4
[1]
  MIC: 9.14 microgram/ml

## COc1nc2ccc(Br)cc2cc1C(c1ccccc1)C(O)(CCCN1CCOCC1)c1cccc2ccccc12 (single isomer, unassigned) [Compound 210]
M. Smegmatis ATCC607; M. smegmatis ATCC607
  pIC50: 6.1
[1]
  MIC: 61.16 microgram/ml

## COc1nc2ccc(Br)cc2cc1C(c1ccccc1)C(O)(CCCN1CCOCC1)c1cccc2ccccc12 (single isomer, unassigned) [Compound 211]
M. Smegmatis ATCC607; M. smegmatis ATCC607
  pIC50: 4.1
[1]
  MIC: 61.16 microgram/ml

## COc1nc2ccc(-c3ccc(CO)o3)cc2cc1C(c1ccccc1)C(O)(CCN(C)C)c1cccc2ccccc12 (single isomer, unassigned) [Compound 212]
M. Smegmatis ATCC607; M. smegmatis ATCC607
  pIC50: 6.0
[1]
  MIC: 9.08 microgram/ml

## COc1nc2cc(C)c(Br)cc2cc1C(c1ccccc1)C(O)(CCN(C)C)c1cccc(F)c1 (single isomer, unassigned) [Compound 215]
M. Smegmatis ATCC607; M. smegmatis ATCC607
  pIC50: 6.2
[1]
  MIC: 8.52 microgram/ml

## COc1nc2cc(C)c(Br)cc2cc1C(c1ccccc1)C(O)(CCN(C)C)c1cccc(F)c1 (single isomer, unassigned) [Compound 216]
M. Smegmatis ATCC607; M. smegmatis ATCC607
  pIC50: 8.0
[1]
  MIC: 0.85 microgram/ml

## COc1nc2cc(Br)ccc2cc1C(c1ccccc1)C(O)(CCN(C)C)c1cccc2ccccc12 (single isomer, unassigned) [Compound 217]
M. Smegmatis ATCC607; M. smegmatis ATCC607
  pIC50: 6.9
[1]
  MIC: 44.13 microgram/ml

## COc1nc2cc(Br)ccc2cc1C(c1ccccc1)C(O)(CCN(C)C)c1cccc2ccccc12 (single isomer, unassigned) [Compound 218]
M. Smegmatis ATCC607; M. smegmatis ATCC607
  pIC50: 6.6
[1]
  MIC: 8.80 microgram/ml

## COc1nc2c(C)cc(Br)cc2cc1C(c1ccccc1)C(O)(CCN(C)C)c1cccc(F)c1 (single isomer, unassigned) [Compound 219]
M. Smegmatis ATCC607; M. smegmatis ATCC607
  pIC50: 5.8
[1]
  MIC: 42.69 microgram/ml

## COc1nc2c(C)cc(Br)cc2cc1C(c1ccccc1)C(O)(CCN(C)C)c1cccc(F)c1 (single isomer, unassigned) [Compound 220]
M. Smegmatis ATCC607; M. smegmatis ATCC607
  pIC50: 5.3
[1]
  MIC: 8.52 microgram/ml

## COc1nc2cccc(Br)c2cc1C(c1ccccc1)C(O)(CCN(C)C)c1cccc2ccccc12 (single isomer, unassigned) [Compound 221]
M. Smegmatis ATCC607; M. smegmatis ATCC607
  pIC50: 6.5
[1]
  MIC: 44.13 microgram/ml

## COc1nc2cccc(Br)c2cc1C(c1ccccc1)C(O)(CCN(C)C)c1cccc2ccccc12 (single isomer, unassigned) [Compound 224]
M. Smegmatis ATCC607; M. smegmatis ATCC607
  pIC50: 4.9
[1]
  MIC: 44.13 microgram/ml

## COc1nc2cc(C)c(Br)cc2cc1C(c1ccccc1)C(O)(CCN(C)C)c1cccc2ccccc12 (single isomer, unassigned) [Compound 225]
M. Smegmatis ATCC607; M. smegmatis ATCC607
  pIC50: 6.6
[1]
  MIC: 1.80 microgram/ml

## COc1nc2cc(C)c(Br)cc2cc1C(c1ccccc1)C(O)(CCN(C)C)c1cccc2ccccc12 (single isomer, unassigned) [Compound 226]
M. Smegmatis ATCC607; M. smegmatis ATCC607
  pIC50: 5.5
[1]
  MIC: 9.03 microgram/ml

## COc1nc2cc(C)c(Br)cc2cc1C(c1ccccc1)C(O)(CCN(C)C)c1cc(F)cc(F)c1 (single isomer, unassigned) [Compound 227]
M. Smegmatis ATCC607; M. smegmatis ATCC607
  pIC50: 7.5
[1]
  MIC: 1.76 microgram/ml

## COc1nc2cc(C)c(Br)cc2cc1C(c1ccccc1)C(O)(CCN(C)C)c1cc(F)cc(F)c1 (single isomer, unassigned) [Compound 228]
M. Smegmatis ATCC607; M. smegmatis ATCC607
  pIC50: 5.1
[1]
  MIC: 8.80 microgram/ml

## COc1nc2cc(C)c(C)cc2cc1C(c1ccccc1)C(O)(CCN(C)C)c1cccc2ccccc12 (single isomer, unassigned) [Compound 229]
M. Smegmatis ATCC607; M. smegmatis ATCC607
  pIC50: 7.1
[1]
  MIC: 40.09 microgram/ml

## CCOc1nc2ccc(Br)cc2cc1C(c1ccccc1)C(O)(CCN(C)C)c1ccccc1 (stereo not shown) [Compound 6]
M. Smegmatis ATCC607; M. smegmatis ATCC607
  pIC50: 5.8
[1]
  MIC: 8.23 microgram/ml

## COc1nc2ccc(Br)cc2cc1[C@@H](c1ccccc1)[C@@](O)(CCN(C)C)c1cccc2ccccc12 [Compound 12, (1R,2S) 1-(6-bromo-2-methoxy-quinolin-3-yl)-4-dimethylamino-2-naphthalen-1-yl-1-phenyl-butan-2-ol]
M. Smegmatis ATCC607; [2]
  IC50: 2 nM
[1]; [3]
  MIC: 0.07 µg/mL (≈ 0.126 µM)

## COc1nc2ccc(Br)cc2cc1C(c1ccccc1)C(O)(CCN(C)C)c1cccc2ccccc12 (stereo not shown) [Compound 13]
M. Smegmatis ATCC607; [2]
  IC50: 200 nM
[1]
  MIC: 44.13 microgram/ml

## COc1nc2ccc(Br)cc2cc1C(c1ccccc1)C(O)(CCN(C)C)c1cccc2ccccc12 (stereo not shown) [Compound 14]
M. Smegmatis ATCC607; M. smegmatis ATCC607
  pIC50: 6.8
[1]
  MIC: 8.80 microgram/ml

## COc1nc2ccc(Br)cc2cc1C(c1ccccc1)C(O)(CCN(C)C)c1cccc2ccccc12 (stereo not shown) [Compound 15]
M. Smegmatis ATCC607; M. smegmatis ATCC607
  pIC50: 6.5
[1]
  MIC: 2.78 microgram/ml

## CCN(CC)CCC(O)(c1ccccc1)C(c1ccccc1)c1cc2cc(Br)ccc2nc1OC (stereo not shown) [Compound 18]
M. Smegmatis ATCC607; M. smegmatis ATCC607, read-out: pIC50 (converted)
  IC50: 200 nM
[1]; [3]
  MIC: 10.6 µg/mL (≈ 19.9 µM)

## CCN(CC)CCC(O)(c1ccccc1)C(c1ccccc1)c1cc2cc(Br)ccc2nc1OC (stereo not shown) [Compound 19]
M. Smegmatis ATCC607; M. smegmatis ATCC607
  pIC50: 6.5
[1]
  MIC: 6.72 microgram/ml

## COc1nc2ccc(Br)cc2cc1C(c1ccccc1)C(O)(CCN(C)C)c1cccc(F)c1 (stereo not shown) [Compound 38]
M. Smegmatis ATCC607; M. smegmatis ATCC607
  pIC50: 7.9
[1]
  MIC: 8.30 microgram/ml
